According to publication PMC8066102, “Metabolic Profiles of New Unsymmetrical Bisacridine Antitumor Agents in Electrochemical and Enzymatic Noncellular Systems and in Tumor Cells” (Pharmaceuticals, 2021):

Key:
UGT1A1 = target: T1, UGT1A1 (Homo sapiens, UniProt P22309); test: Modulation of UGT1A1 activity (SN-38 glucuronidation); format: in vitro ADME; set-up: purchased Corning, NY, USA (through DIAG-MED, Poland); host or cells: baculovirus-insect cells (Supersomes); settings: SN-38 substrate
T1 sequence (P22309 26-533): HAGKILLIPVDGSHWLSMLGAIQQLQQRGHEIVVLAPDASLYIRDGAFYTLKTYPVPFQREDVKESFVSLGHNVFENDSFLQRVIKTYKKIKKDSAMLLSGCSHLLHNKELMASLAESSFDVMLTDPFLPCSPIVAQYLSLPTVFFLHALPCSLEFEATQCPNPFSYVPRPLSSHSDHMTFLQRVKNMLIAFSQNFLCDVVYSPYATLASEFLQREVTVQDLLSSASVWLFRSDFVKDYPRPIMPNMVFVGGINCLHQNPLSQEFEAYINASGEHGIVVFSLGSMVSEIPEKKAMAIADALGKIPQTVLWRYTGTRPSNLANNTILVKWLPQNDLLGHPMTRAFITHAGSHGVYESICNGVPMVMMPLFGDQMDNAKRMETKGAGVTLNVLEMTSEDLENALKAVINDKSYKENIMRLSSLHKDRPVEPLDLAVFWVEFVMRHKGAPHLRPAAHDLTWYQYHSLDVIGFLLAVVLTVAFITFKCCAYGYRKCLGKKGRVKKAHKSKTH
Method: Isoenzyme activity was studied by the rate measurement of β-hydroxylation of testosterone (specific substrate for P4503A4) and of glucuronidation of specific substrates, namely, SN-38 (UGT1A1), EPI (UGT2B7),) and TFK (UGT2B15). All substrate and drug solutions were prepared as 10 mM stock solutions in DMSO and were diluted in […] (pH 7.4). The mixture containing isoenzymes P4503A4/UGT (0.5 mg/mL), probe substrate (0.1 mM), cofactor 2 mM NADPH/5 mM UDPGA and the increasing concentrations of tested UA (0, 0.01, 0.02 and 0.05 mM) was incubated in the reaction buffer containing (i) for P4503A4 0.1 M HEPES, 88 mM MgCl2 and (ii) for UGT 0.1 M HEPES, 88 mM MgCl2, 25 μg/mL alamethicin at 37 °C for 30 min and were terminated by adding 8.75 µL of 0.1 M HCl. The samples were placed in ice for 10 min and centrifuged (10 min, 13,400 rpm). Supernatant fractions were analyzed by HPLC. For more accurate investigation of P4503A4 inhibition by C-2045 and C-2053 the β-hydroxylation rate was measured at various concentrations of testosterone: 0.02, 0.05, 0.1 and 0.2 mM. The inhibitor (UA) concentrations were 0, 0.001, 0.005 and 0.01 mM, whereas the incubation time 30 min and concentration of P4503A4 (0.5 mg/mL).

[1] = Differential pulse voltammetry on glassy carbon electrode; format: physicochemical; settings: 0.5–20 µM, 0.02 M borate buffer with 0.15 M NaCl, pH 7.4, glassy carbon electrode, vs Ag/AgCl/3 M KCl
Method: To minimize the effects of electrode absorption processes on the current signals, differential pulse voltammetry (DPV) was applied in the positive potential range. […] This behavior was not observed in the case of C-2045, where only one anodic signal at a potential of approximately 0.52 V was observed over the entire studied concentration range (0.5–20 µM). The linear dependency, I = f (cUAs), confirmed that the obtained anodic current signals can be used for analytical purposes; however, the signal of C-2028 was linear over a narrower concentration range than in the case of C-2045.
Cyclic voltammetry (CV) and differential pulse voltammetry (DVP) were performed in 0.02 M borate buffer with 0.15 M NaCl, in water pH 7.4. with Autolab, model PGSTAT 12 potentiostat equipped with an ECD amplifier module (RC time settings: 0.0 s for scan rates > 10 mV/s and 0.1 s for scan rates < 10 mV/s). The voltammetric measurements were done in the three-electrode system consisting of the working electrode (glassy carbon electrode, GCE; ϕ = 3 mm; BAS Instruments), the reference electrode (Ag/AgCl/3 M KCl) and a platinum wire as the auxiliary electrode. Before each experiment the surface of working electrode was polished with 1 μm Al2O3 powder on a wet pad. After each polishing, to remove alumina completely from the electrode surface, the surface was rinsed with direct stream of ultrapure water. […]

HCT-116 cells = test: Drug metabolism in HCT-116 colon tumor cells; format: cell-based, human; settings: HCT-116 (low UGT expression), 50 μM, medium and cell extract, up to 24 h
Method: (§1) To analyze the transformation products of UAs in colon tumor cell lines, HCT-116 or HT-29 cells were plated in 60 mm Petri dishes; after reaching 80% of confluence, cells were treated with 5/25/50 μM of C-2028, C-2045 or C-2053 (prepared as 10 or 2 mM stock solutions in water) for specified time. Half of medium was added to acetonitrile (1:1, v/v), centrifuged (12 min, 13,400 rpm, 4 °C) and the supernatant was analyzed by HPLC (post-culture medium). Cells remaining on the Petri dishes were collected by gentle scraping, sedimented, washed with ice-cold PBS, suspended in ice-cold chloroform and lysed by sonication for 15 min. After 1 h on ice, insoluble material was removed by centrifugation at 13,000 rpm for 20 min at 4 °C. The sediment was discarded and supernatant (chloroform) were evaporated under pressure. Then, sample was suspended in ice-cold 60% methanol and directly analyzed by HPLC (cell extract).

HCT-116-UGT1A10 cells = test: Drug metabolism in HCT-116 cells transfected with UGT1A10; format: cell-based, human; settings: HCT-116 overexpressing UGT1A10, 50 μM, medium and cell extract, 24 and 72 h
Method: as §1

activity decrease of UGT1A1 (UGT1A1; low concentrations of compound) [%]	inhibition at 30 min (UGT1A1; human, UGT1A1 isoenzyme preparation, pH 7.4, probe SN-38, higher concentrations of compound, read-out: inhibition rate of UGT1A1) [%]	DPV anodic signal potential [1]	metabolite formation in cells (HCT-116 cells)	Compound	metabolite formation in cells (HCT-116-UGT1A10 cells)
77	65 to 70			CN(CCCNc1c2ccccc2nc2cccc([N+](=O)[O-])c12)CCCNc1ccc2ncn3c4ccccc4c(=O)c1c23 [C-2028]	
		approximately 0.52 V	No metabolite products were observed	Cc1ccc([N+](=O)[O-])c2c(NCCCN(C)CCCNc3ccc4ncn5c6ccc(O)cc6c(=O)c3c45)c3ccccc3nc12 [C-2045]	metabolized the substrate to the derivative, which was found in the cell medium rather than in the cell extract
